Experimental data taken from patent US20250281465A1, “MOLECULES THAT ENHANCE EXTRACELLULAR VESICLE RELEASE” (priority 2022, published 2025).
“Also recorded” adds a separate entry of the source.

Key:
mBMDCs [1] = assay: IL-12 induction in mBMDCs (ELISA); format: cell-based, mouse; conditions: 10 μM / dose response
Protocol: (§1) All these analogs were evaluated for induction of IL-12 cytokine at 10 μM, followed by dose response IL-12 induction for selected analogs. These analogs were also evaluated for exosome release by quantitating EV release in the supernatant post 48 hours incubation with CD63-Tluc-CD9-EmGFP THP-1 reporter cells.
mBMDCs (10^5 cells/200 μL/well) were plated in wells of 96-well plates and treated with test compound (5 μM or 10 μM) or vehicle (0.5% DMSO) overnight.

[2] = tested on: CD63-Tluc-CD9-EmGFP THP-1 reporter cells; assay: CD63 Tluc-CD9 EmGFP THP-1 reporter cell assay (EV/exosome release); format: cell-based, human; conditions: 48 hours incubation
Protocol: as §1
In the HTS using CD63-Tluc-CD9EmGFP reporter cells (CD63 HTS), PMA (10 ng/ml) was used as a positive control (Shpigelman et al., 2021) and 0.5% DMSO was used as negative control (vehicle, Veh). Briefly, the harvested cells were resuspended in assay media containing 10% exosome-depleted […] (#A2720801, Thermo Fisher Scientific) and plated at 2×10^5 cells/mL (50 μL/well of 384-well plates) (#3674, Corning). Test compounds were added at a final concentration of 10 μM to cells and incubated for 48 hours at 37° C. Subsequently, the plate was centrifuged, supernatant (25 μL) was transferred, and chemiluminescent was measured as recombinant luciferase activity (RLU) after 10 minutes incubation with TurboLuc assay reagent (TurboLuc™ One-Step Glow Assay kit, Thermo Fisher Scientific). The response that measures activation and subsequent release of EVs was calculated using the following formula; % response=100×(compound RLU−average Veh RLU)/(average PMA RLU−average Veh RLU). The viability of cells was assessed using PrestoBlue reagent (Thermo Fisher Scientific). Briefly, PrestoBlue reagent (2.5 μl) was added to the remaining cells and incubated for 30 minutes at room temperature, followed by fluorescence readout at (Ex 560 nm/Em 590 nm) which was normalized to fluorescence data of the Veh wells within the plate to obtain “% viability” calculated as 100×(compound fluorescence/average Veh fluorescence).
CD63 Tluc-CD9 EmGFP THP-1 reporter cell assay. CD63 Tluc CD9 EmGFP THP-1 reporter cell (designated as CD63 Tluc reporter cells) were incubated with 10 μM test compounds, ION (1 μM), or 0.5% DMSO (negative control) in the RPMI 1640 supplemented with exosome-depleted FBS at 5×10^4 cells in 200 μL/well for a 96-well plate for 48 hours at 37° C. Subsequently, the plate was centrifuged, the supernatant was transferred, and chemiluminescence was measured by TurboLuc™ Luciferase One-Step Glow Assay Kit. The response that measures activation and subsequent release of EVs was calculated using the following formula; % response=100×(compound RLU−average Veh RLU)/(average PMA RLU−average Veh RLU).

4T1 breast cancer = assay: Murine lung metastasis models (4T1 breast cancer); format: in vivo, mouse
Description: Recent advances in cancer immunotherapy have improved patient survival. However, only a minority patients with pulmonary metastatic disease responds to treatment with checkpoint inhibitors. As an alternate approach, we have tested the ability of systemically administered 1V270, a toll-like receptor 7 (TLR7) agonist conjugated to a phospholipid, to inhibit lung metastases in two variant murine 4T1 breast cancer models, as well as in B16 melanoma, and Lewis lung c models.

mBMDCs [3] = assay: Costimulatory molecule expression on mBMDCs (flow cytometry); format: cell-based, mouse; conditions: 634 10 μM, ION 1 μM, MPLA 1 μg/mL overnight, vs Veh
Protocol: FIGS. 26A-26D. Flow cytometric analysis for costimulatory molecules on mBMDCs. For costimulatory molecules on mBMDCs, mBMDCs (10^6 cells/mL) were incubated with 634 (10 μM), ION (1 μM), and MPLA (1 μg/mL) for 20-24 hours. 0.5% DMSO was used as a vehicle. After removing the supernatant, cells were washed with the stain buffer and incubated with anti-mouse CD16/32 antibody for blocking FcR. Cells were stained with an antibody cocktail with anti-CD86 (A), anti-CD80 (B), anti-MHC class II (C), and anti-CD40 (D) antibodies for 30 minutes at 4° C. Cells were then washed and stained with DAPI (4′,6-diamino-2phenylindole) for 10 minutes at room temperature to exclude dead cells (DAPI^high) from the analysis. Data were acquired using MACSQuant Analyzer 10 (Miltenyi Biotec, Germany) and analyzed with FlowJo (version 10.8.1).
mBMDCs (10^5 cells/200 μL/well) were treated with a test compound (10 μM) or Veh (0.5% DMSO) overnight and then the costimulatory molecule expression on mBMDCs was evaluated using flow cytometry. The cells were stained with antibodies for CD11c, CD80, CD83, CD86, CD40, and MHC class II. Dead cells (DAPI high) were excluded from the analysis. Percent positive population of CD80, CD83, CD86, CD40, or MHC class II in the gated CD11c population were analyzed.
Costimulatory Molecule Expression Analysis. mBMDCs (10^6 cells/mL) were incubated with 10 μM compound, 1 μM lonomycin and 1 μg/mL MPLA for 20 to 24 hours. 0.5% DMSO was used as vehicle. Cells were incubated with anti-mouse CD16/32 antibody for blocking FcR and stained with anti-CD11c, anti-CD40, […], anti-CD83, […], or anti-MHC class II antibodies for 30 minutes at 4° C. Cells were stained with 4′,6-diamino-2-phenylindole (DAPI) for 10 minutes at RT. Data were acquired using MACSQuant Analyzer 10 (Miltenyi Biotec, Germany) and analyzed with FlowJo (version 10.8.1, Becton Dickinson, Ashland, OR)).

For `Cc1cccc(-c2cncc(-c3nnc(-c4cccc5ccccc45)o3)c2)c1` [2C185], the IL-12 induction (mBMDCs [1]) was “enhance exosome release and IL-12 induction; also recorded: induced IL-12 in BMDCs” and the “exosome (EV) release in CD63 reporter THP-1 cells” value [2] was “enhance exosome release; also recorded: enhanced exosome release in CD63 reporter THP-1 cells”.

In the case of `CCCCCCCC/C=C\CCCCCCCC(=O)OCC(COP(=O)(O)OCCNC(=O)c1ccc(Cn2c(=O)[nH]c3c(N)nc(OCCOC)nc32)cc1)OC(=O)CCCCCCC/C=C\CCCCCCCC` (stereo not drawn) [1V270], the “lung metastases / tumor cell colonization in the lungs” value (4T1 breast cancer; 4T1 breast cancer models, systemic administration) is reported as “inhibited lung metastases; also recorded: inhibited colonization by tumor cells in the lungs”, the toxic effects (4T1 breast cancer; compared to the unconjugated agonist) is reported as “minimal toxic effects” and the “lung metastasis after intranasal administration” value (4T1 breast cancer; intranasal administration) is reported as “suppressed lung metastasis”.

In the case of `C[C@H](CCC(=O)O)C[C@H](C)C[C@H](C)C(=O)/C=C(\O)[C@H](C)C[C@H](C)C/C=C/[C@@H](C)[C@@H](O)[C@@H](C)[C@@H](O)C[C@@H]1CC[C@@](C)([C@H]2CC[C@@](C)([C@@H](C)O)O2)O1` [ION, ionomycin, reference compound], the “CD80 expression on mBMDCs” value (mBMDCs [3]) is reported as “increased CD86 and CD80 expression on mBMDCs” and the “CD86 expression on mBMDCs” value (mBMDCs [3]) is reported as “increased CD86 and CD80 expression on mBMDCs”.

For `Cc1ccccc1-c1cncc(-c2nnc(-c3cccc4ccccc34)o2)c1` [2C183], the IL-12 induction (mBMDCs [1]) was “induced IL-12 in BMDCs” and the “exosome (EV) release in CD63 reporter THP-1 cells” value [2] was “enhanced exosome release in CD63 reporter THP-1 cells”.
